Experimental data from US11672813B2, “Bortezomib compositions” (MAIA Pharmaceuticals, Inc., priority 2021, dated 2023).

Key:
[1] = Estimated solubility of bortezomib in select non-aqueous solvents (visual, incremental solvent addition); assay type: physicochemical; settings: for Observation: approximately 25 mg
Description: The appearance of the solution was recorded.

[2] = Visual dissolution and physical stability of bortezomib formulations with low concentrations of benzyl alcohol or DMSO in water; assay type: physicochemical; settings: target 2.5 mg/mL; benzyl alcohol (2% v/v), DMSO (5% v/v) or combination, water added afterwards
Description: Initial formulation experiments with low concentrations of various non-aqueous solvents were conducted targeting a bortezomib concentration of 2.5 mg/mL. Attempts to solubilize bortezomib were conducted using low concentrations of benzyl alcohol (2% v/v), or dimethyl sulfoxide (5% v/v), or a combination of these solvents. […] For these formulations, the non-aqueous solvent was added to bortezomib to dissolve it, followed by addition of water to the bortezomib-solvent mixture.
Various concentrations of DMSO were explored as the non-aqueous component of the formulation (2% v/v to 5% v/v in water). Bortezomib was first completely dissolved in the batch volume of DMSO to form a concentrated “premix” solution prior to making up the batch to the target concentration (2.5 mg/mL) with water. This was done to facilitate the subsequent dissolution of bortezomib in the aqueous component.

For `CC(C)C[C@H](NC(=O)[C@H](Cc1ccccc1)NC(=O)c1cnccn1)B(O)O` [Bortezomib, [(1R)-3-methyl-1-[[(2S)-1-oxo-3-phenyl-2-[(pyrazinylcarbonyl)amino]propyl]amino]butyl] boronic acid], which Observation ([1]; N-methyl pyrrolidone (NMP)) is on record?
Its Observation is “Completely dissolved after 1 mL”.

What about the “Observation: solvent needed to dissolve approximately 25 mg” value ([1]; alcohol (ethanol)) of the same compound?
Its value is “Approximately 5.5 mL of solvent”.

What about the Observation ([1]; benzyl alcohol) of the same compound?
Its Observation is “Completely dissolved after 0.5 mL”.

And the Observation ([1]; dimethyl sulfoxide (DMSO))?
Its Observation is “Completely dissolved after 0.5 mL”.

What about the Observation ([1]; glycerol, up to 10 mL) of the same compound?
Its Observation is “No significant dissolution observed up”.

What about the Observation ([1]; polyethylene glycol 400, up to 10 mL) of the same compound?
Its Observation is “No significant dissolution observed up”.

And the “Observation: solvent needed to dissolve approximately 25 mg” value ([1]; propylene glycol)?
Its value is “Approximately 7 mL of solvent needed”.

What about the “Outcome of dissolution attempt” value [2] of the same compound?
Its value is “precipitated after addition of water”.
